{
  "source": "patent US20070173488A1",
  "about": "“Pyrazolothiazole Protein Kinase Modulators” (SGX Pharmaceuticals, Inc., priority 2005, published 2007)",
  "key": {"CDK4/CycD1": {"molecular_target": "T1, CDK4/CycD1 (Homo sapiens, UniProt P11802)", "T1 construct": "purchased ProQuinase GmbH, Freiburg, Germany (assay service)", "T1 sequence (P11802 whole entry)": "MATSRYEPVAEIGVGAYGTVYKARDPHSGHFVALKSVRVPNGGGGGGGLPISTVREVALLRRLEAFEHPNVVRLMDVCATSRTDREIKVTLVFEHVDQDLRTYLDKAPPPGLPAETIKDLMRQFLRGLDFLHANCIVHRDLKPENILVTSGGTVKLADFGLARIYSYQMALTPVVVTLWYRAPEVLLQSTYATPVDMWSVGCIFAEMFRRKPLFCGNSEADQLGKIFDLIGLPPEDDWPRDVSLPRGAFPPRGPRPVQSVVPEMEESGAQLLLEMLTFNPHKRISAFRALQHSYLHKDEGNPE", "T1 sequence (P24385 whole entry partner)": "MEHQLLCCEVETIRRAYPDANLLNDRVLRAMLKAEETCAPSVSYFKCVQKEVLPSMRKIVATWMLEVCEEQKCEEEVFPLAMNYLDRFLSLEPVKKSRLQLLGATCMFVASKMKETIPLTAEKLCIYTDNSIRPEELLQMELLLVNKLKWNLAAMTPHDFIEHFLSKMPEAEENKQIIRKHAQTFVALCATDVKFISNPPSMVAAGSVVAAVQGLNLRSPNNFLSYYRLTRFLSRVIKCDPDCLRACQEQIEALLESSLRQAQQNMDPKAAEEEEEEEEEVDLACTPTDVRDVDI", "experiment": "33PanQuinase Activity Assay (ProQuinase GmbH)", "type": "biochemical", "source_text": "^33PanQuinase Activity Assay (ProQuinase GmbH) and SelectScreen™ Kinase Profiling (Invitrogen Corp.)\n^33PanQuinase Activity Assay is a proprietary, radioisotopic protein kinase assay developed by ProQuinase GmbH, Freiburg, Germany. Details on assay conditions can be found on the company's website."}, "GTL16 cells": {"system": "GTL16 cells", "experiment": "96-well XTT cell survival assay (GTL16 cells)", "type": "cell-based", "conditions": "Homo sapiens, GTL 16, 72 hours", "method": "GTL16 cells were maintained in DMEM Medium supplemented with 10% fetal bovine serum (FBS) 2 mM L-Glutamine and 100 units penicillin/100 μg streptomycin, at 37° C. in 5% CO2.\n(§1) Compounds were tested in the following assays in duplicate.\n(§2) 96-well XTT assay (GLT16 cells): One day prior to assay the growth media was aspirated off and assay media was added to cells. On the day of the assay, the cells were grown in assay media containing various concentrations of compounds (duplicates) on a 96-well flat bottom plate for 72 hours at 37° C. in 5% CO2. The starting cell number was 5000 cells per well and volume was 120 μl. At the end of the 72-hour incubation, 40 μl of XTT labeling mixture (50:1 solution of sodium 3′-[1-(phenylaminocarbonyl)-3,4-tetrazolium]-bis (4-methoxy-6-nitro) benzene sulfonic acid hydrate and Electron-coupling reagent: PMS (N-methyl dibenzopyrazine methyl sulfate) were added to each well of the plate. After an additional 5 hours of incubation at 37° C., the absorbance reading at 450 nm with a background correction of 650 nm was measured with a spectrophotometer."}, "HCT116 cells": {"system": "HCT116 cells", "experiment": "96-well XTT cell survival assay (HCT116 cells)", "type": "cell-based", "conditions": "Homo sapiens, HCT-116, 72 hours", "method": "HCT116 cells were maintained in McCoy's 5a Medium supplemented with 10% fetal bovine serum (FBS) 2 mM L-Glutamine and 100 units penicillin/100 μg streptomycin, at 37° C. in 5% CO2.\nas §1\nas §2, with “assay (HCT116” for “assay (GLT16”, “cells): Cells” for “cells): One day prior to assay the growth media was aspirated off and assay media was added to cells. On the day of the assay, the cells”, “in growth” for “in assay”, “additional 2-6” for “additional 5”, “at” for “at 450 nm with a background correction of”"}},
  "data": [
    {"compound": "O=C(Nc1cc[nH]n1)Nc1nc2[nH]nc(-n3cncc3-c3ccccc3Cl)c2s1", "note": "[1-{3-[5-(2-Chloro-phenyl)-imidazol-1-yl]-1H-pyrazolo[3,4-d]thiazol-5-yl}-3-(1H-pyrazol-3-yl)-urea]", "values": [
      {"measurement": "IC50", "setting": "CDK4/CycD1", "value": "100 to 1000", "unit": "nM"},
      {"measurement": "IC50", "setting": "GTL16 cells", "value": "< 100", "unit": "nM"},
      {"measurement": "IC50", "setting": "HCT116 cells", "value": "100 to 1000", "unit": "nM"}
    ]},
    {"compound": "O=C(Nc1nc2[nH]nc(-n3cncc3-c3ccccc3)c2s1)C1CC1", "note": "[Cyclopropanecarboxylic acid [3-(5-phenyl-imidazol-1-yl)-1H-pyrazolo[3,4-d]thiazol-5-yl]-amide]", "values": [
      {"measurement": "IC50", "setting": "GTL16 cells", "value": "1000 to 10000", "unit": "nM"},
      {"measurement": "IC50", "setting": "HCT116 cells", "value": "100 to 1000", "unit": "nM"}
    ]},
    {"compound": "O=C(Nc1nc2[nH]nc(-n3cncc3-c3ccccn3)c2s1)C1CC1", "note": "[Cyclopropanecarboxylic acid [3-(5-pyridin-2-yl-imidazol-1-yl)-1H-pyrazolo[3,4-d]thiazol-5-yl]-amide]", "values": [
      {"measurement": "IC50", "setting": "HCT116 cells", "value": "100 to 1000", "unit": "nM"}
    ]},
    {"compound": "O=C(Nc1nc2[nH]nc(-n3cncc3-c3cc(Cl)cc(Cl)c3Cl)c2s1)C1CC1", "note": "[Cyclopropanecarboxylic acid {3-[5-(2,3,5-trichloro-phenyl)-imidazol-1-yl]-1H-pyrazolo[3,4-d]thiazol-5-yl}-amide]", "values": [
      {"measurement": "IC50", "setting": "CDK4/CycD1", "value": "1000 to 10000", "unit": "nM"}
    ]},
    {"compound": "O=C(Nc1nc2[nH]nc(-n3cncc3-c3c(Cl)ccc(Cl)c3Cl)c2s1)C1CC1", "note": "[Cyclopropanecarboxylic acid {3-[5-(2,3,6-trichloro-phenyl)-imidazol-1-yl]-1H-pyrazolo[3,4-d]thiazol-5-yl}-amide]", "values": [
      {"measurement": "IC50", "setting": "GTL16 cells", "value": "100 to 1000", "unit": "nM"},
      {"measurement": "IC50", "setting": "HCT116 cells", "value": "1000 to 10000", "unit": "nM"}
    ]},
    {"compound": "O=C(Nc1nc2[nH]nc(-n3cncc3-c3cccc(F)c3F)c2s1)C1CC1", "note": "[Cyclopropanecarboxylic acid {3-[5-(2,3-difluoro-phenyl)-imidazol-1-yl]-1H-pyrazolo[3,4-d]thiazol-5-yl}-amide]", "values": [
      {"measurement": "IC50", "setting": "CDK4/CycD1", "value": "< 100", "unit": "nM"},
      {"measurement": "IC50", "setting": "GTL16 cells", "value": "1000 to 10000", "unit": "nM"},
      {"measurement": "IC50", "setting": "HCT116 cells", "value": "100 to 1000", "unit": "nM"}
    ]},
    {"compound": "O=C(Nc1nc2[nH]nc(-n3cncc3-c3c(Cl)cccc3Cl)c2s1)C1CC1", "note": "[Cyclopropanecarboxylic acid {3-[5-(2,6-dichloro-phenyl)-imidazol-1-yl]-1H-pyrazolo[3,4-d]thiazol-5-yl}-amide]", "values": [
      {"measurement": "IC50", "setting": "CDK4/CycD1", "value": "< 100", "unit": "nM"},
      {"measurement": "IC50", "setting": "GTL16 cells", "value": "< 100", "unit": "nM"},
      {"measurement": "IC50", "setting": "HCT116 cells", "value": "100 to 1000", "unit": "nM"}
    ]},
    {"compound": "O=C(Nc1nc2[nH]nc(-n3cncc3-c3ccccc3Cl)c2s1)C1CC1", "note": "[Cyclopropanecarboxylic acid {3-[5-(2-chloro-phenyl)-imidazol-1-yl]-1H-pyrazolo[3,4-d]thiazol-5-yl}-amide]", "values": [
      {"measurement": "IC50", "setting": "CDK4/CycD1", "value": "< 100", "unit": "nM"},
      {"measurement": "IC50", "setting": "GTL16 cells", "value": "100 to 1000", "unit": "nM"},
      {"measurement": "IC50", "setting": "HCT116 cells", "value": "100 to 1000", "unit": "nM"}
    ]},
    {"compound": "NC(=O)COc1ccc(-c2cncn2-c2n[nH]c3nc(NC(=O)C4CC4)sc23)c(Cl)c1", "note": "[Cyclopropanecarboxylic acid {3-[5-(4-carbamoylmethoxy-2-chloro-phenyl)-imidazol-1-yl]-1H-pyrazolo[3,4-d]thiazol-5-yl}-amide]", "values": [
      {"measurement": "IC50", "setting": "CDK4/CycD1", "value": "< 100", "unit": "nM"}
    ]}
  ]
}
